How the values were obtained:
pigs [1] = conditions: Example 2: supplementation of female pigs during pregnancy; vs no supplementation and vs carnosine
Description: (§1) Beta-alanine will be used as a dietary supplement for pigs and chickens.
(§2) Beta-alanine supplementation will be provided to female pigs and female chickens during pregnancy. Beta-alanine will be provided in dosages provided in concentrations and/or percentages for times described in this disclosure. Controls will be provided. Controls will include a group of female pigs and female chickens given no additional supplementation beyond those currently administered during pig and chicken pregnancies. Another control group will be provided with supplementation with carnosine provided in dosages provided in concentrations and/or percentages for times described in this disclosure.

chickens = conditions: Example 2: supplementation of female chickens during pregnancy; vs no supplementation and vs carnosine
Description: as §1, §2

pigs [2] = assay: Dietary supplementation of female pigs: survivability and live births per litter; type: in vivo; conditions: vs no supplementation and vs carnosine
Description: Beta-alanine will be used as a dietary supplement for pigs.
as §2, with “pigs” for “pigs and female chickens”, “pig” for “pig and chicken”, “carnosine at” for “carnosine provided in”
(§3) Beta-alanine supplementation will be provided to female pigs prior to and during pregnancy. Beta-alanine will be provided in dosages provided in concentrations and/or percentages for times described in this disclosure. Controls will be provided. Controls will include a group of female pigs given no additional supplementation beyond those currently administered during pig pregnancies. Another control group will be provided with supplementation with carnosine at dosages provided in concentrations and/or percentages for times described in this disclosure.
as §3, with “starting from breeding age through” for “prior to and during”
as §3, with “from birth through” for “prior to and during”

[3] = taken as a free amino acid; some individuals; cited from earlier work
[4] = Example 1: supplementation during pregnancy
[5] = Example 3: supplementation prior to and during pregnancy
[6] = Example 4: supplementation from breeding age through pregnancy
[7] = Example 5: supplementation from birth through pregnancy

Compound: NCCC(=O)O [beta-alanine]
- early development rate for piglets (pigs [1]): improves
- early development rate for chicks (chickens): improves
- amount of live births per litter (pigs [2]; [4]): improves
- survivability (pigs [2]; [4]): improves
- amount of live births per litter (pigs [2]; [5]): improves
- survivability (pigs [2]; [5]): improves
- amount of live births per litter (pigs [2]; [6]): improves
- survivability (pigs [2]; [6]): improves
- amount of live births per litter (pigs [2]; [7]): improves
- survivability (pigs [2]; [7]): improves
- duration of flushing/tingling of the skin [3]: less than 60 minutes
